Reference: patent publication US20230026271A1, “Piperazine Compounds for Inhibiting CPS1” (Eisai R&D Management Co., Ltd., priority 2019, published 2023)
pIC50: −log10 of the molar value.

Target: T1, CPS1 (Homo sapiens, UniProt P31327)
T1 construct: The full length, human CPS1 gene was cloned into pFastBac HTA; His6 (from the pFastBac HTA vector); made in house; host or cells: SF21 insect cells (baculovirus, Bac-to-bac)
T1 sequence (P31327 39-1500): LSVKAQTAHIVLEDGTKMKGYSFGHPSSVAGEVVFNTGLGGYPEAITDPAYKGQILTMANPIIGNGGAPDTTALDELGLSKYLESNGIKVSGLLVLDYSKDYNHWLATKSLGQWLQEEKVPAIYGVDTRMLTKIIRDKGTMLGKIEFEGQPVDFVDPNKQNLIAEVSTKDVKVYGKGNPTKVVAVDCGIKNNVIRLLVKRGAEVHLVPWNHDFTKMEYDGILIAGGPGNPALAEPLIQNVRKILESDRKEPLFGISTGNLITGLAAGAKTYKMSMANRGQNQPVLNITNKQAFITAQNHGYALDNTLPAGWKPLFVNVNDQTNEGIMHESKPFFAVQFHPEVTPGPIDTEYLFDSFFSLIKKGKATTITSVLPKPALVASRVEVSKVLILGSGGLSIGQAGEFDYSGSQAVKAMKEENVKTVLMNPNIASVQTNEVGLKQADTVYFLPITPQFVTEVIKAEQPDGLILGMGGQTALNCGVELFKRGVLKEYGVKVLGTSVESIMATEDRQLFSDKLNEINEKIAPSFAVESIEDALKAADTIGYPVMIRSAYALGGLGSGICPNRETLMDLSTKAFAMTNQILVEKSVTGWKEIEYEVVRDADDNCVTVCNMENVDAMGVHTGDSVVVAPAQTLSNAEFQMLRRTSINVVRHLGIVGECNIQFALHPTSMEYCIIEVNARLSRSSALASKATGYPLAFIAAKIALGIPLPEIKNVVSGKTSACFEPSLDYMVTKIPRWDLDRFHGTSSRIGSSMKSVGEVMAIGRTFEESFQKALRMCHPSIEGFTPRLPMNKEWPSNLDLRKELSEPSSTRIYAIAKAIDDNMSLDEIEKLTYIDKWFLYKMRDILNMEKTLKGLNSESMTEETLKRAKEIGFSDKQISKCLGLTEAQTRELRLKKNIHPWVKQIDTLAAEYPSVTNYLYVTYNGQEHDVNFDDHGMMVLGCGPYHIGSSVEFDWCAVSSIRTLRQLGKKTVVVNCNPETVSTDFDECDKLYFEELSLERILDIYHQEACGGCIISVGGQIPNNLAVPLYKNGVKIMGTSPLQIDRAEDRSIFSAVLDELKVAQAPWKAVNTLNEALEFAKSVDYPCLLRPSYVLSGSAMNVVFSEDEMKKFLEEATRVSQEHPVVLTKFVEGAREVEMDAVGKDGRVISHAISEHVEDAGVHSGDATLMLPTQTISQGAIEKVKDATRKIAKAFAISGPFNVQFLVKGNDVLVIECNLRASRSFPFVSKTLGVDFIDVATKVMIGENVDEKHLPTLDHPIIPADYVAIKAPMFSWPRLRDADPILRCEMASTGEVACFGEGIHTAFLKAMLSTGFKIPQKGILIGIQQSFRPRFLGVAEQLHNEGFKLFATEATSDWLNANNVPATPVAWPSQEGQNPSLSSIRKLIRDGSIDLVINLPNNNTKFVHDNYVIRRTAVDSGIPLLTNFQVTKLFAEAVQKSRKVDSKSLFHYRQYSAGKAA
Assay: ADP-Glo endpoint assay measuring the ATPase activity of CPS1
Format: biochemical
Conditions: geometric mean of a minimum of two values; 50 nM CPS1, 10 μM ATP, 0.2 mM NAG, 60 min at room temperature; read-out: ADPGlo IC50
Method: CPS1 was expressed and purified from SF21 insect cells. The full length, human CPS1 gene was cloned into pFastBac HTA and baculovirus was generated using the Bac-to-bac expression system from Invitrogen. P3 virus was used to infect SF21 insect cells at a density of 1.5E6 cells/mL at an MOI of 2. Cells were harvested by centrifugation after 60 hrs and the cell pellet resuspended in lysis buffer (50 mM glycyl glycine pH 7.4, 20 mM KCl, 1 mM TCEP, 10% glycerol and 20 mM imidazole with Roche protease inhibitor tablet) before being lysed with 40 strokes of a Dounce homogenizer on ice. The insoluble fraction of the lysate was then cleared by centrifugation at 30,000 rpm for 30 min. 40 mL of supernatant was mixed with 2 mL of Ni NTA beads for 45 min at 4° C. in a 50 mL conical tube.
The beads were washed with 40 mL of wash buffer (50 mM glycyl glycine pH 7.4, 500 mM NaCl, 1 mM TCEP, 10% glycerol and 50 mM imidazole) by centrifugation and resuspension of the beads three times. Bound CPS1 protein was eluted in 6 mL of elution buffer (50 mM glycyl glycine pH 7.4, 500 mM NaCl, 1 mM TCEP, 10% glycerol and 250 mM imidazole) three times. Elution fractions were combined and concentrated using an Amicon Ultra centrifugation filter with a 10,000 molecular weight cut off. Imidazole was removed by repeated concentration and resuspension in storage buffer in the filter device (50 mM glycyl glycine pH 7.4, 500 mM NaCl, 1 mM TCEP and 20% glycerol). CPS1 was concentrated to a final concentration of ˜3 mg/mL before being aliquoted, flash frozen in liquid nitrogen and stored at −80° C.
CPS1 activity was measured and compounds profiled in an endpoint assay measuring the ATPase activity of CPS1 using the ADP-Glo kit from Promega. 50 nM CPS1 was incubated alone or with varying amounts of tested compound from DMSO stocks in assay buffer (50 mM HEPES pH 7.0, 12.5 mM KHCO3, 1.5 mM (NH4)2SO3, 5 mM MgCl2, 50 mM KCl, 1 mM TCEP, 0.01% TritonX 100, 0.0025% BSA and 0.2 mM NAG) for 20 min in a 3 μL volume in a 384-well plate (Corning Cat#3820). The final concentration of DMSO was 0.04%. The reaction was initiated by the addition of 10 μM ATP, bringing the final volume to 6 μL. After 60 min at room temperature, the reaction was terminated with 3 μL ADP-Glo reagent and incubated at room temperature for 30 min. 3 μL of kinase detection reagent was then added and luminescent signal measured on an Envision plate reader after 30 min.

Row | SMILES | pIC50
1 | COc1ccc(C(=O)N2[C@H](C)CN(C(=O)c3ccc4c(c3)CCO4)C[C@H]2C)c(F)c1 [Compound 21, ((2R,6R)-4-(2,3-Dihydrobenzofuran-5-carbonyl)-2,6-dimethylpiperazin-1-yl)(2-fluoro-4-methoxyphenyl)methanone] | 5.13
2 | COc1ccc(C(=O)N2C[C@@H](C)N(C(=O)c3ccc(C)cc3F)[C@H](C)C2)c(F)c1 [Compound 22, ((2R,6R)-4-(2-Fluoro-4-methoxybenzoyl)-2,6-dimethylpiperazin-1-yl)(2-fluoro-4-methylphenyl)methanone] | 6.45
3 | COc1ccc(C(=O)N2C[C@@H](C)N(C(=O)c3cc(F)c(OC)cc3F)[C@H](C)C2)c(F)c1 [Compound 23, ((3R,5R)-4-(2,5-Difluoro-4-methoxybenzoyl)-3,5-dimethylpiperazin-1-yl)(2-fluoro-4-methoxyphenyl)methanone] | 5.92
4 | COc1ccc(C(=O)N2C[C@@H](C)N(C(=O)c3ccc(OCc4ccccc4)cc3F)[C@H](C)C2)c(F)c1 [Compound 24, ((3R,5R)-4-(4-(Benzyloxy)-2-fluorobenzoyl)-3,5-dimethylpiperazin-1-yl)(2-fluoro-4-methoxyphenyl)methanone] | 6.00
5 | COc1ccc(C(=O)N2C[C@@H](C)N(C(=O)c3c(F)cc(SC)cc3F)[C@H](C)C2)c(F)c1 [Compound 25, ((3R,5R)-4-(2,6-difluoro-4-(methylthio)benzoyl)-3,5-dimethylpiperazin-1-yl)(2-fluoro-4-methoxyphenyl)methanone] | 6.59
6 | COc1ccc(C(=O)N2C[C@@H](C)N(C(=O)c3ccc(OC)cc3F)[C@H](C)C2)c(F)c1 [Compound 26, ((2R,6R)-2,6-Dimethylpiperazine-1,4-diyl)bis((2-fluoro-4-methoxyphenyl)methanone)] | 6.44
7 | CCOc1ccc(C(=O)N2[C@H](C)CN(C(=O)c3ccc(OC)cc3F)C[C@H]2C)c(F)c1 [Compound 27, ((3R,5R)-4-(4-Ethoxy-2-fluorobenzoyl)-3,5-dimethylpiperazin-1-yl)(2-fluoro-4-methoxyphenyl)methanone] | 6.38
8 | COc1ccc(C(=O)N2C[C@@H](C)N(C(=O)c3c(C)cc(OC)cc3F)[C@H](C)C2)c(F)c1 [Compound 28, ((3R,5R)-4-(2-Fluoro-4-methoxy-6-methylbenzoyl)-3,5-dimethylpiperazin-1-yl)(2-fluoro-4-methoxyphenyl)methanone] | 6.04
9 | COc1ccc(C(=O)N2C[C@@H](C)N(C(=O)c3ccc(OC)c(F)c3)[C@H](C)C2)c(F)c1 [Compound 29, ((2R,6R)-4-(2-Fluoro-4-methoxybenzoyl)-2,6-dimethylpiperazin-1-yl)(3-fluoro-4-methoxyphenyl)methanone] | 5.64
10 | COc1ccc(C(=O)N2C[C@@H](C)N(C(=O)c3ccc(OC(C)C)cc3F)[C@H](C)C2)c(F)c1 [Compound 30, ((3R,5R)-4-(2-fluoro-4-isopropoxybenzoyl)-3,5-dimethylpiperazin-1-yl)(2-fluoro-4-methoxyphenyl)methanone] | 5.83
11 | COc1ccc(C(=O)N2C[C@@H](C)N(C(=O)c3ccc(OC(F)(F)F)cc3F)[C@H](C)C2)c(F)c1 [Compound 31, ((3R,5R)-4-(2-fluoro-4-(trifluoromethoxy)benzoyl)-3,5-dimethylpiperazin-1-yl)(2-fluoro-4-methoxyphenyl)methanone] | 5.93
12 | COc1ccc(C(=O)N2C[C@@H](C)N(C(=O)c3ccc(F)cc3F)[C@H](C)C2)c(F)c1 [Compound 32, ((3R,5R)-4-(2,4-difluorobenzoyl)-3,5-dimethylpiperazin-1-yl)(2-fluoro-4-methoxyphenyl)methanone] | 5.84
13 | COc1ccc(C(=O)N2C[C@@H](C)N(C(=O)c3ccc(OC(F)F)cc3F)[C@H](C)C2)c(F)c1 [Compound 33, ((3R,5R)-4-(4-(difluoromethoxy)-2-fluorobenzoyl)-3,5-dimethylpiperazin-1-yl)(2-fluoro-4-methoxyphenyl)methanone] | 5.59
14 | COc1ccc(C(=O)N2C[C@@H](C)N(C(=O)c3ccc(OC)c(F)c3F)[C@H](C)C2)c(F)c1 [Compound 34, ((3R,5R)-4-(2,3-Difluoro-4-methoxybenzoyl)-3,5-dimethylpiperazin-1-yl)(2-fluoro-4-methoxyphenyl)methanone] | 6.41
15 | COc1ccc(C(=O)N2[C@H](C)CN(C(=O)c3ccc4c(c3)NC(=O)CO4)C[C@H]2C)c(F)c1 [Compound 35, 6-((3R,5R)-4-(2-Fluoro-4-methoxybenzoyl)-3,5-dimethylpiperazine-1-carbonyl)-2H-benzo[b][1,4]oxazin-3(4H)-one] | 5.10
16 | COc1ccc(C(=O)N2[C@H](C)CN(C(=O)c3c[nH]c4c(Cl)cccc34)C[C@H]2C)c(F)c1 [Compound 36, (7-Chloro-1H-indol-3-yl)((3R,5R)-4-(2-fluoro-4-methoxybenzoyl)-3,5-dimethylpiperazin-1-yl)methanone] | 5.94
17 | COc1ccc(C(=O)N2[C@H](C)CN(C(=O)c3cnc4cc[nH]c4c3)C[C@H]2C)c(F)c1 [Compound 37, ((2R,6R)-2,6-Dimethyl-4-(1H-pyrrolo[3,2-b]pyridine-6-carbonyl)piperazin-1-yl)(2-fluoro-4-methoxyphenyl)methanone] | 5.60
18 | COc1ccc(C(=O)N2[C@H](C)CN(C(=O)c3ccc4nc[nH]c4c3)C[C@H]2C)c(F)c1 [Compound 38, ((2R,6R)-4-(1H-Benzo[d]imidazole-5-carbonyl)-2,6-dimethylpiperazin-1-yl)(2-fluoro-4-methoxyphenyl)methanone] | 5.31
19 | COc1ccc(C(=O)N2C[C@@H](C)N(C(=O)c3ccc(-c4cnco4)cc3)[C@H](C)C2)c(F)c1 [Compound 39, ((3R,5R)-3,5-Dimethyl-4-(4-(oxazol-5-yl)benzoyl)piperazin-1-yl)(2-fluoro-4-methoxyphenyl)methanone] | 5.45
20 | COc1ccc(C(=O)N2C[C@@H](C)N(C(=O)c3ccc(-c4ncc[nH]4)cc3)[C@H](C)C2)c(F)c1 [Compound 40, ((3R,5R)-4-(4-(1H-imidazol-2-yl)benzoyl)-3,5-dimethylpiperazin-1-yl)(2-fluoro-4-methoxyphenyl)methanone] | 5.12
